Measurements from ChEMBL document CHEMBL6109039, “Designed and synthesized novel tripeptides targeting diabetes and its related pathologies” (Eur J Med Chem, 2025).
Residues, ends and D or L forms follow the SMILES beside them.

Experiments:
Albumin [1] = target: T1, Albumin (Homo sapiens, UniProt P02768); experiment: Inhibition of D-fructose glycation in human serum albumin model by measuring ketoamine moieties incubated for 7 days by Nitroblue tetrazolium (NBT) reduction assay (reference value: 125.33 nmol/mL); settings: 168 h, time 7 day
T1 sequence (P02768 whole entry): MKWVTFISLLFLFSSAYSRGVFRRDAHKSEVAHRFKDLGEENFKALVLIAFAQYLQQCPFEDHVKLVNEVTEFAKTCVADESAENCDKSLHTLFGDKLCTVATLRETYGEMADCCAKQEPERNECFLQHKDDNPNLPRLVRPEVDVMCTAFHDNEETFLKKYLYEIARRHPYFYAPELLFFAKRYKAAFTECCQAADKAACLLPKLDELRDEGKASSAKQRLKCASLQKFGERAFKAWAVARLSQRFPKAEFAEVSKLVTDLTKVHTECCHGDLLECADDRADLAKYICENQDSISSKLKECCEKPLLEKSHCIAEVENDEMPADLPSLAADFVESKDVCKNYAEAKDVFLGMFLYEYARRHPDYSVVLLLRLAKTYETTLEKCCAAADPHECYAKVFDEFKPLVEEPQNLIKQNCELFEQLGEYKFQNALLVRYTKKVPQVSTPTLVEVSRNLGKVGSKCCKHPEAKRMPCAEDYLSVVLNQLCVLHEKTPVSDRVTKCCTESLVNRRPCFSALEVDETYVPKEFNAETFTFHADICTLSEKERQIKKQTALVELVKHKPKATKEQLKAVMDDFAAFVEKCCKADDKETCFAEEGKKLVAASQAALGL

Albumin [2] = target: T1, Albumin; experiment: Inhibition of D-fructose glycation in human serum albumin model by measuring absorbance at 279 nm incubated for 33 days by UV spectroscopic analysis (Rvb =2.222); settings: 792 h, time 33 day
Mus musculus [3] = experiment: Antidiabetic activity in Nicotinamide/Streptozotocin induced male Balb/c mouse model assessed as reduction in fasting blood glucose levels at 63.81 ug/kg, ip measured after 7 days by glucometer analysis (reference value: 160.5 +/- 8.02 mg/dl); type: functional; settings: dose 63.81 µg/kg, time 7 day
Albumin [4] = target: T1, Albumin; experiment: Inhibition of D-glucose glycation in human serum albumin model by measuring ketoamine moieties incubated for 26 days by Nitroblue tetrazolium (NBT) reduction assay (reference value: 28.79 nmol/mL); settings: 624 h, time 26 day
Albumin [5] = target: T1, Albumin; experiment: Inhibition of D-fructose glycation in human serum albumin model by measuring ketoamine moieties incubated for 33 days by Nitroblue tetrazolium (NBT) reduction assay (reference value: 144.33 nmol/mL); settings: 792 h, time 33 day
Albumin [6] = target: T1, Albumin; experiment: Inhibition of D-fructose glycation in human serum albumin model by measuring absorbance at 279 nm incubated for 26 days by UV spectroscopic analysis (reference value: 2.267); settings: 624 h, time 26 day
Albumin [7] = target: T1, Albumin; experiment: Inhibition of D-fructose glycation in human serum albumin model incubated for 14 days by UV spectroscopic analysis relative to control; settings: 336 h, time 14 day
Mus musculus [8] = experiment: Antidiabetic activity in Nicotinamide/Streptozotocin induced male Balb/c mouse model assessed as reduction in VLDL-cholesterol level in blood at 63.81 microg/kg, ip treated for 21 days (reference value: 14 +/- 0.6 mg/dL); type: functional; settings: dose 63.81 µg/kg, time 21 day
Mus musculus [9] = experiment: Antidiabetic activity in Nicotinamide/Streptozotocin induced male Balb/c mouse model assessed as Non-HDL-Cholesterol level in blood at 63.81 ug/kg, ip treated for 21 days (reference value: 75 mg/dL); type: functional; settings: dose 63.81 µg/kg, time 21 day
Mus musculus [10] = experiment: Antidiabetic activity in Nicotinamide/Streptozotocin induced male Balb/c mouse model assessed as reduction in HDL-cholesterol level in blood at 63.81 ug/kg, ip treated for 21 days (reference value: 30 +/- 1.80 mg/dL); type: functional; settings: dose 63.81 µg/kg, time 21 day
Albumin [11] = target: T1, Albumin; experiment: Inhibition of D-glucose glycation in human serum albumin model by measuring absorbance at 279 nm incubated for 30 days by UV spectroscopic analysis (reference value: 2.295); settings: 720 h, time 30 day
Albumin [12] = target: T1, Albumin; experiment: Inhibition of D-fructose glycation in human serum albumin model assessed as reduction in fluorescence intensity incubated for 3 days by UV spectroscopic analysis relative to control; settings: 72 h, time 3 day
Mus musculus [13] = experiment: Antidiabetic activity in Nicotinamide/Streptozotocin induced male Balb/c mouse model assessed as LDL-Cholesterol/HDL-Cholesterol ratio in blood at 63.81 ug/kg, ip treated for 21 days (reference value: 1.53); type: functional; settings: dose 63.81 µg/kg, time 21 day
Albumin [14] = target: T1, Albumin; experiment: Inhibition of D-fructose glycation in human serum albumin model by measuring ketoamine moieties incubated for 30 days by Nitroblue tetrazolium (NBT) reduction assay (reference value: 128.71 nmol/mL); settings: 720 h, time 30 day
Albumin [15] = target: T1, Albumin; experiment: Inhibition of D-glucose glycation in human serum albumin model by measuring absorbance at 279 nm incubated for 7 days by UV spectroscopic analysis (reference value: […]); settings: 168 h, time 7 day
Mus musculus [16] = experiment: Antidiabetic activity in Nicotinamide/Streptozotocin induced male Balb/c mouse model assessed as reduction in fasting blood glucose levels at 63.81 ug/kg, ip measured after 14 days by glucometer analysis (reference value: 168.5 +/- 8.42 mg/dl); type: functional; settings: dose 63.81 µg/kg, time 14 day
Pancreatic alpha-amylase = target: T2, Pancreatic alpha-amylase (Sus scrofa, UniProt P00690); experiment: Inhibition of porcine pancreatic Alpha-amylase using starch as substrate pre-incubated for 20 mins followed by substrate addition and measured after 15 mins by DNS reagent based absorbance assay
T2 sequence (P00690 whole entry): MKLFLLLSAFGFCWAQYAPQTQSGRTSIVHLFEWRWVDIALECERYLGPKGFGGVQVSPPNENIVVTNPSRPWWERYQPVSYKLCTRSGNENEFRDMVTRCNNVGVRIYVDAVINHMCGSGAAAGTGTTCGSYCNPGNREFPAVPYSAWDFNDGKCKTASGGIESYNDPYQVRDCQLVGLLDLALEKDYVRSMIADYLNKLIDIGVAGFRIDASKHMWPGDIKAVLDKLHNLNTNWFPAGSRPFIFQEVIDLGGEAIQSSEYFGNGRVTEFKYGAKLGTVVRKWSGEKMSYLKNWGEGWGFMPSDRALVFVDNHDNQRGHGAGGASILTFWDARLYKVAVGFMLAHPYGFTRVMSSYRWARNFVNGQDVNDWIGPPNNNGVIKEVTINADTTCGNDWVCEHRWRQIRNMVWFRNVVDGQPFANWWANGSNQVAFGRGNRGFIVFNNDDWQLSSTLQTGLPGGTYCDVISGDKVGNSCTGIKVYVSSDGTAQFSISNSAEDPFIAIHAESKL

Albumin [17] = target: T1, Albumin; experiment: Inhibition of D-glucose glycation in human serum albumin model by measuring ketoamine moieties incubated for 30 days by Nitroblue tetrazolium (NBT) reduction assay (reference value: 27.85 nmol/mL); settings: 720 h, time 30 day
Albumin [18] = target: T1, Albumin; experiment: Inhibition of D-fructose glycation in human serum albumin model by measuring absorbance at 279 nm incubated for 30 days by UV spectroscopic analysis (reference value: 2.323); settings: 720 h, time 30 day
Mus musculus [19] = experiment: Antidiabetic activity in Nicotinamide/Streptozotocin induced male Balb/c mouse model assessed as change in body weight at 63.81 ug/kg, ip treated for 21 days relative to control; type: functional; settings: dose 63.81 µg/kg, time 21 day
Albumin [20] = target: T1, Albumin; experiment: Inhibition of D-glucose glycation in human serum albumin model incubated for 14 days by UV spectroscopic analysis relative to control; settings: 336 h, time 14 day
Mus musculus [21] = experiment: Antidiabetic activity in Nicotinamide/Streptozotocin induced male Balb/c mouse model assessed as reduction in aspartate transaminase level in blood at 63.81 ug/kg, ip treated for 21 days (reference value: 171 +/- 8.55 U/L); type: functional; settings: dose 63.81 µg/kg, time 21 day
Albumin [22] = target: T1, Albumin; experiment: Inhibition of D-fructose glycation in human serum albumin model by measuring absorbance at 279 nm incubated for 14 days by UV spectroscopic analysis (reference value: 2.333); settings: 336 h, time 14 day
Albumin [23] = target: T1, Albumin; experiment: Inhibition of D-fructose glycation in human serum albumin model by measuring ketoamine moieties incubated for 5 days by Nitroblue tetrazolium (NBT) reduction assay (reference value: 111.94 nmol/mL); settings: 120 h, time 5 day
Albumin [24] = target: T1, Albumin; experiment: Inhibition of D-fructose glycation in human serum albumin model by measuring absorbance at 279 nm incubated for 7 days by UV spectroscopic analysis (reference value: 1.072); settings: 168 h, time 7 day

SMILES: N=C(N)NCCC[C@H](N)C(=O)N[C@@H](Cc1c[nH]c2ccccc12)C(=O)N[C@@H](Cc1c[nH]c2ccccc12)C(=O)O (H-Arg-Trp-Trp-OH)
- Activity (Albumin [1]): 113.45 nmol/mL
- OD (Albumin [2]): 1.298
- Activity (Mus musculus [3]): 150 mg/dL
- Activity (Albumin [4]): 20.174 nmol/mL
- Activity (Albumin [5]): 109.89 nmol/mL
- OD (Albumin [6]): 1.502
- inhibition (INH) (Albumin [7]): 16.45%
- Activity (Mus musculus [8]): 11 mg/dL
- Activity (Mus musculus [9]): 67 mg/dL
- Activity (Mus musculus [10]): 41 mg/dL
- OD (Albumin [11]): 2.555
- inhibition (INH) (Albumin [12]): 52.78%
- Ratio (Mus musculus [13]): 0.75
- Activity (Albumin [14]): 108.46 nmol/mL
- OD (Albumin [15]): 0.434
- Activity (Mus musculus [16]): 134 mg/dL
- IC50 (Pancreatic alpha-amylase): 96 µM
- Activity (Albumin [17]): 18.908 nmol/mL
- OD (Albumin [18]): 1.591
- Activity (Mus musculus [19]): 2.7%
- inhibition (INH) (Albumin [20]): 74.68%
- Activity (Mus musculus [21]): 152 U/L
- OD (Albumin [22]): 1.207
- Activity (Albumin [23]): 90.74 nmol/mL
- OD (Albumin [24]): 0.665
